Measurements published in patent US20090274577A1, “STE[…] TREATMENT WITH REDUCTANT AND OXIDANT” (priority 2008, published 2009).

System: Bacillus atrophaeus spores
Experiment: Filtering test: spores incubated in test solution, filtered, filter half treated with ozone, colonies counted
Format: cell-based
Excerpt: Bacterial spores: Stainless steel discs with Bacillus atrophaeus spores (log 6, cat #1-6100ST, Raven Biological Laboratories).
An ozone generator provided ˜350 ppm O3, and a flow rate of ˜25 l/min, using setting No. 1.
Commercially available sterile single filters (pore size 0.45 μm) and an analytical test filter funnel from Nalgene was used (F-2161, Sigma-Aldrich). For suction, a Rietschle Thomas DTF 6 vacuum pump was used, with a flow rate of ˜6 m3/h, providing a vacuum of ˜150 mbar abs.
Filtering test: In filtering test experiments the spore solutions were prepared in a volume of 1 ml and processed. Thereto, after an incubation period of 5 min in the appropriate buffer at 40° C. using a rotary shaker, an aliquot of 250 μl of the suspension was transferred onto a sterile single use filters. The filter was washed two times with 10 ml of sterile water. The filter was retrieved under sterile conditions, and the filter was cut into halves using a sterile scissor. Only one half of the filter was treated with ozone, while the other half was kept as control, i.e. without ozone treatment. Finally, both halves were placed onto a TSA plate and incubated at 30° C. Initially Nutrient Agar plates were used, but later on a switch was made to TSA plates, in order to utilize the more pronounced reddish colour of Bacillus atrophaeus colonies which was facilitating analysis and documentation. […]

OC(CS)C(O)CS (racemic) [DTT, DL-dithiotreitol]
reduction of viability of Bacillus atrophaeus (liquid media comprising reductant, then sterile air with ~350 ppm ozone for 5 or 10 min): 3-5 logs | sterilizing/disinfecting/killing effect (in words) (test solution followed by ~350 ppm ozone, 5 or 10 min): improved
